The values that follow come from patent US8372967B2, “Compounds and methods for modulating expression of GCCR” (Isis Pharmaceuticals, Inc., priority 2006, dated 2013).

Strand notation (5' to 3'): a small letter for the sugar, then the base; units joined by * are phosphorothioate-linked, units joined directly phosphodiester-linked; [ ] holds rarer units or linkages, { } end groups; capitals alone tell only the bases. e = 2'-O-(2-methoxyethyl) (MOE); [5mC] = 5-methylcytosine; d = 2'-deoxy (DNA)

One data set concerns rat DGAT2 mRNA. The data set can be described thus: Dose-dependent inhibition of DGAT2 in A10 cells (Tables 82, 83). The class given is cell-based. On the procedure:
Additional short antisense compounds targeted to DGAT2 mRNA were tested in vitro in a dose-response experiment. A10 cells were prepared as described above and treated with 6.25, 12.5, 25.0, 50.0, 100.0, and 200.0 nM short antisense compounds to determine if DGAT2 inhibition occurs in a dose-dependent manner. […] Results are presented as percent inhibition, relative to untreated control cells.
Additional short antisense compounds targeted to DGAT2 mRNA were tested in vitro. A10 cells were prepared as described above and treated with 0.62, 1.85, 5.56, 16.67, 50.0, and 150.0 nM short antisense compounds to determine if DGAT2 inhibition occurs in a dose-dependent manner. DGAT2 mRNA was measured using quantitative real-time PCR, as described herein. […] Results are presented as percent inhibition of rat DGAT2, relative to untreated control cells.

In the next data set the test system is PCSK9 mRNA. The class given is cell-based, human. The conditions noted are these: Hep3B cells, 100 nM, relative to untreated control cells; for % Inhib: 0 = no reduction observed. On the procedure: When cells reached appropriate confluency, they were treated with oligonucleotide using LIPOFECTIN® as described. […] Cells were treated and data were obtained in duplicate or triplicate. […] Cells were harvested 16-24 hours after oligonucleotide treatment.
Prior to quantitative PCR analysis, primer-probe sets specific to the target gene being measured were evaluated for their ability to be “multiplexed” with a GAPDH amplification reaction. After isolation the RNA is subjected to sequential reverse transcriptase (RT) reaction and real-time PCR, both of which are performed in the same well. RT and PCR reagents were obtained from Invitrogen Life Technologies (Carlsbad, Calif.). […] The RT reaction was carried out by incubation for 30 minutes at 48° C. Following a 10 minute incubation at 95° C. to activate the PLATIN 9M® Taq, 40 cycles of a two-step PCR protocol were carried out: 95° C. for 15 seconds (denaturation) followed by 60° C. for 1.5 minutes (annealing/extension).
170 μL of RiboGreen® working reagent (RiboGreen® reagent diluted 1:350 in 10 mM Tris-HCl, 1 mM EDTA, pH 7.5) was pipetted into a 96-well plate containing 30 μL purified cellular RNA. The plate was read in a CytoFluor® 4000 (PE Applied Biosystems) with excitation at 485 nm and emission at 530 nm.
Short antisense compounds targeted to a PCSK9 nucleic acid were tested for their effects on PCSK9 mRNA in vitro. The Isis No, gapmer motif and SEQ ID NO of each short antisense compound are shown again in Table 75. Cultured Hep3B cells were treated with 100 nM of short antisense compound. 5-10-5 MOE gapmers targeted to a PCSK9 nucleic acid were used as positive controls. After the treatment period, RNA was isolated from the cells and PCSK9 mRNA levels were measured by quantitative real-time PCR, as described herein. PCSK9 mRNA levels were adjusted according to total RNA content as measured by RIBOGREEN®. Results are presented in Table 75 as percent inhibition of PCSK9 (% Inhib), relative to untreated control cells.

For “372562 (antisense eG*eT*d[5mC]*dT*dT*dG*dG*dA*dG*dG*dG*d[5mC]*e[5mC]*eG) [compound 372562]”, the “percent inhibition of DGAT2” value with rat DGAT2 mRNA (6.25 nM (Table 82)) came out at 0%; in the data set on rat DGAT2 mRNA (12.5 nM (Table 82)) it was 0%; in the data set on rat DGAT2 mRNA (50.0 nM (Table 82)) it was 36%; in the data set with rat DGAT2 mRNA (100.0 nM (Table 82)), 48%; with rat DGAT2 mRNA (200.0 nM (Table 82)), 75%.

As to “372568 (antisense eG*eA*d[5mC]*dA*d[5mC]*dT*dG*d[5mC]*dA*dG*dG*d[5mC]*e[5mC]*eA) [compound 372568]”, the “percent inhibition of DGAT2” value in the data set on rat DGAT2 mRNA (6.25 nM (Table 82)) was found to be 0%; with rat DGAT2 mRNA (12.5 nM (Table 82)), 0%; in the data set with rat DGAT2 mRNA (50.0 nM (Table 82)), 26%; in the data set with rat DGAT2 mRNA (100.0 nM (Table 82)) it was 72%; in the data set on rat DGAT2 mRNA (200.0 nM (Table 82)) it was 69%.

Take “400297 (antisense eA*eT*dG*dG*dG*dG*d[5mC]*dA*dA*d[5mC]*dT*dT*e[5mC]*eA) [compound 400297]”: the “% Inhib” value in the data set on PCSK9 mRNA is on record as 0%.

In the case of “400298 (antisense e[5mC]*eA*dT*dG*dG*dG*dG*d[5mC]*dA*dA*d[5mC]*dT*eT*e[5mC]) [compound 400298]”, the “% Inhib” value in the data set with PCSK9 mRNA stood at 0%.

Turning to “400299 (antisense eA*e[5mC]*dA*dT*dG*dG*dG*dG*d[5mC]*dA*dA*d[5mC]*eT*eT) [compound 400299]”, in the data set with PCSK9 mRNA, the “% Inhib” value was 0%.

With “400300 (antisense eG*eG*dG*dA*dT*dG*d[5mC]*dT*d[5mC]*dT*dG*dG*eG*e[5mC]) [compound 400300]”, the “% Inhib” value with PCSK9 mRNA was found to be 9%.

Consider “400301 (antisense e[5mC]*eG*d[5mC]*dT*d[5mC]*d[5mC]*dA*dG*dG*dT*dT*d[5mC]*e[5mC]*eA) [compound 400301]”, for which, in the data set on PCSK9 mRNA, the “% Inhibition Range” value was 20-30% and the “% Inhib” value is given as 27%.

As for “400302 (antisense eG*eA*dT*dA*d[5mC]*dA*d[5mC]*d[5mC]*dT*d[5mC]*d[5mC]*dA*e[5mC]*e[5mC]) [compound 400302]”, in the data set with PCSK9 mRNA, the “% Inhib” value worked out at 0%.

“400303 (antisense eA*eG*dA*dT*dA*d[5mC]*dA*d[5mC]*d[5mC]*dT*d[5mC]*d[5mC]*eA*e[5mC]) [compound 400303]”: in the data set with PCSK9 mRNA, the “% Inhib” value turned out to be 0%.

On to “400304 (antisense eG*eA*dG*dA*dT*dA*d[5mC]*dA*d[5mC]*d[5mC]*dT*d[5mC]*e[5mC]*eA) [compound 400304]”, for which, in the data set on PCSK9 mRNA, the “% Inhibition Range” value is listed as 10-20% and the “% Inhib” value is 11%.

Turning to “400305 (antisense eG*e[5mC]*d[5mC]*dT*dG*dT*d[5mC]*dT*dG*dT*dG*dG*eA*eA) [compound 400305]”, in the data set with PCSK9 mRNA, the “% Inhibition Range” value was 30-40% and the “% Inhib” value came to 38%.

In the case of “400306 (antisense e[5mC]*eT*dG*dT*d[5mC]*dA*d[5mC]*dA*d[5mC]*dT*dT*dG*e[5mC]*eT) [compound 400306]”, in the data set with PCSK9 mRNA, the “% Inhibition Range” value was 40-50% and the “% Inhib” value amounted to 40%.

“400310 (antisense eT*e[5mC]*d[5mC]*d[5mC]*dG*dG*d[5mC]*d[5mC]*dG*d[5mC]*dT*dG*eA*e[5mC]) [compound 400310]”: the “% Inhib” value in the data set on PCSK9 mRNA was determined as 8%.

With “400311 (antisense eA*eT*d[5mC]*d[5mC]*d[5mC]*dG*dG*d[5mC]*d[5mC]*dG*d[5mC]*dT*eG*eA) [compound 400311]”, in the data set with PCSK9 mRNA, the “% Inhibition Range” value was 10-20% and the “% Inhib” value was determined as 18%.

“400312 (antisense e[5mC]*eA*dT*d[5mC]*d[5mC]*d[5mC]*dG*dG*d[5mC]*d[5mC]*dG*d[5mC]*eT*eG) [compound 400312]”: in the data set on PCSK9 mRNA, the “% Inhibition Range” value is given as 20-30% and the “% Inhib” value came to 28%.

For “400313 (antisense eG*e[5mC]*dA*dT*d[5mC]*d[5mC]*d[5mC]*dG*dG*d[5mC]*d[5mC]*dG*e[5mC]*eT) [compound 400313]”, in the data set on PCSK9 mRNA, the “% Inhibition Range” value was 10-20% and the “% Inhib” value is 10%.

Turning to “400314 (antisense eG*eT*dG*d[5mC]*d[5mC]*d[5mC]*dT*dT*d[5mC]*d[5mC]*d[5mC]*dT*eT*eG) [compound 400314]”, in the data set with PCSK9 mRNA, the “% Inhibition Range” value is 20-30% and the “% Inhib” value is on record as 26%.

Consider “400315 (antisense eA*eT*dG*dA*dG*dG*dG*dT*dG*d[5mC]*d[5mC]*dG*e[5mC]*eT) [compound 400315]”, for which the “% Inhib” value in the data set on PCSK9 mRNA came out at 0%.

For “400316 (antisense eT*eA*dT*dG*dA*dG*dG*dG*dT*dG*d[5mC]*d[5mC]*eG*e[5mC]) [compound 400316]”, in the data set with PCSK9 mRNA, the “% Inhib” value is 8%.

In the case of “400317 (antisense e[5mC]*eT*dA*dT*dG*dA*dG*dG*dG*dT*dG*d[5mC]*e[5mC]*eG) [compound 400317]”, the “% Inhib” value with PCSK9 mRNA is 7%.

Regarding “400318 (antisense e[5mC]*e[5mC]*dT*dA*dT*dG*dA*dG*dG*dG*dT*dG*e[5mC]*e[5mC]) [compound 400318]”, in the data set with PCSK9 mRNA, the “% Inhibition Range” value is 20-30% and the “% Inhib” value is given as 26%.

For the substance “400319 (antisense e[5mC]*eG*dA*dA*dT*dA*dA*dA*d[5mC]*dT*d[5mC]*d[5mC]*eA*eG) [compound 400319]”, the “% Inhib” value in the data set on PCSK9 mRNA worked out at 0%.

As to “400320 (antisense e[5mC]*e[5mC]*dG*dA*dA*dT*dA*dA*dA*d[5mC]*dT*d[5mC]*e[5mC]*eA) [compound 400320]”, in the data set with PCSK9 mRNA, the “% Inhib” value was 0%.

As for “400321 (antisense eT*e[5mC]*d[5mC]*dG*dA*dA*dT*dA*dA*dA*d[5mC]*dT*e[5mC]*e[5mC]) [compound 400321]”, the “% Inhib” value with PCSK9 mRNA is recorded as 0%.

With “400322 (antisense eT*eT*d[5mC]*d[5mC]*dG*dA*dA*dT*dA*dA*dA*d[5mC]*eT*e[5mC]) [compound 400322]”, the “% Inhib” value in the data set with PCSK9 mRNA is recorded as 0%.

For “400323 (antisense eG*e[5mC]*d[5mC]*dA*dG*dG*dG*dG*d[5mC]*dA*dG*d[5mC]*eA*eG) [compound 400323]”, the “% Inhib” value in the data set on PCSK9 mRNA is 0%.

In the case of “400324 (antisense eG*eA*dG*dT*dA*dG*dA*dG*dG*d[5mC]*dA*dG*eG*e[5mC]) [compound 400324]”, in the data set with PCSK9 mRNA, the “% Inhib” value is recorded as 7%.

With “400325 (antisense e[5mC]*e[5mC]*d[5mC]*d[5mC]*dA*dA*dA*dG*dT*d[5mC]*d[5mC]*d[5mC]*e[5mC]*eA) [compound 400325]”, the “% Inhib” value in the data set with PCSK9 mRNA turned out to be 4%.

“400326 (antisense eT*e[5mC]*d[5mC]*d[5mC]*d[5mC]*dA*dA*dA*dG*dT*d[5mC]*d[5mC]*e[5mC]*e[5mC]) [compound 400326]”: the “% Inhib” value in the data set with PCSK9 mRNA was 0%.

Take “400328 (antisense eA*e[5mC]*dG*dT*dG*dG*dG*d[5mC]*dA*dG*d[5mC]*dA*eG*e[5mC]) [compound 400328]”: in the data set with PCSK9 mRNA, the “% Inhibition Range” value is given as 10-20% and the “% Inhib” value worked out at 13%.

For the substance “400329 (antisense e[5mC]*eA*d[5mC]*dG*dT*dG*dG*dG*d[5mC]*dA*dG*d[5mC]*eA*eG) [compound 400329]”, in the data set with PCSK9 mRNA, the “% Inhibition Range” value is recorded as 10-20% and the “% Inhib” value was 14%.

Turning to “400332 (antisense e[5mC]*eA*dG*dG*dG*dA*dA*d[5mC]*d[5mC]*dA*dG*dG*e[5mC]*e[5mC]) [compound 400332]”, the “% Inhib” value in the data set on PCSK9 mRNA is 0%.

As to “400333 (antisense eT*e[5mC]*dA*dG*dG*dG*dA*dA*d[5mC]*d[5mC]*dA*dG*eG*e[5mC]) [compound 400333]”, the “% Inhib” value in the data set with PCSK9 mRNA turned out to be 0%.

For the substance “400334 (antisense e[5mC]*eT*d[5mC]*dA*dG*dG*dG*dA*dA*d[5mC]*d[5mC]*dA*eG*eG) [compound 400334]”, in the data set on PCSK9 mRNA, the “% Inhib” value came to 0%.

Consider “400335 (antisense e[5mC]*e[5mC]*dT*d[5mC]*dA*dG*dG*dG*dA*dA*d[5mC]*d[5mC]*eA*eG) [compound 400335]”, for which the “% Inhib” value with PCSK9 mRNA is listed as 0%.

Regarding “400336 (antisense eT*e[5mC]*d[5mC]*dT*d[5mC]*dA*dG*dG*dG*dA*dA*d[5mC]*e[5mC]*eA) [compound 400336]”, the “% Inhib” value with PCSK9 mRNA was 4%.

As for “400337 (antisense eG*eT*d[5mC]*d[5mC]*dT*d[5mC]*dA*dG*dG*dG*dA*dA*e[5mC]*e[5mC]) [compound 400337]”, the “% Inhib” value with PCSK9 mRNA was determined as 0%.

Consider “400338 (antisense eG*eG*dT*d[5mC]*d[5mC]*dT*d[5mC]*dA*dG*dG*dG*dA*eA*e[5mC]) [compound 400338]”, for which the “% Inhib” value with PCSK9 mRNA is reported as 9%.
